We go through 16 molecules from patent US11091478B2 (Fochon Pharmaceuticals, Ltd., priority 2017, dated 2021).

As usually defined, the IC50 is the concentration that inhibits the measured activity by half. A low value points to greater potency.

One assay concerns DOHH2 cells. The assay is described as follows: Cell proliferation assay (MTS), DOHH2 cells, 120 h. The assay is classed as cell-based. Put shortly: (§1)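 Cells in RPMI-1640 with 10% FBS were seeded at 5000/well, left overnight at 37° C., 5% CO2, then exposed to compound at 10000 down to 1.5 nM (nine concentrations) for 72 h (RS4;11) or 120 h (DOHH2). Viability was read by MTS, 2 h, absorbance at 490/650 nm; IC50 calculated.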

Another assay has as its system RS4;11 cells. Description: Cell proliferation assay (MTS), RS4;11 cells, 72 h. It counts as cell-based. The essentials:
as §1

The structures appear in SMILES notation. Read-outs that look alike come from different tables or passages of the source.

`CC1(C)CCC(CN2CCN(c3ccc(C(=O)NS(=O)(=O)c4cc5c(c([N+](=O)[O-])c4)N[C@H](CO)CO5)c(Oc4cnc5[nH]ccc5c4)c3)CC2)=C(c2ccc(Cl)cc2)C1` [Example 2-8, (R)-2-((1H-pyrrolo[2,3-b]pyridin-5-yl)oxy)-4-(4-((4′-chloro-5,5-dimethyl-3,4,5,6-tetra-hydro-[1,1′-biphenyl]-2-yl)methyl)piperazin-1-yl)-N-((3-(hydroxymethyl)-5-nitro-3,4-dihydro-2H-benzo[b][1,4]oxazin-7-yl)sulfonyl)benzamide]: the half-inhibitory concentration (IC50) with DOHH2 cells (Homo sapiens, DOHH-2, 120 h) is 67 nM; in the assay on RS4;11 cells (Homo sapiens, RS4-11, 72 h), 14 nM.

In the case of `COC[C@@H]1CSc2cc(S(=O)(=O)NC(=O)c3ccc(N4CCN(CC5=C(c6ccc(Cl)cc6)CC(C)(C)CC5)CC4)cc3Oc3cnc4[nH]ccc4c3)cc([N+](=O)[O-])c2N1` [Example 3-6, (R)-2-((1H-pyrrolo[2,3-b]pyridin-5-yl)oxy)-4-(4-((4′-chloro-5,5-dimethyl-3,4,5,6-tetra-hydro-[1,1′-biphenyl]-2-yl)methyl)piperazin-1-yl)-N-((3-(methoxymethyl)-5-nitro-3,4-dihydro-2H-benzo[b][1,4]thiazin-7-yl)sulfonyl)benzamide], the IC50 amounted to 14 nM in the assay on DOHH2 cells (Homo sapiens, DOHH-2, 120 h) and 8 nM with RS4;11 cells (Homo sapiens, RS4-11, 72 h).

Consider `CC1(C)CCC(CN2CCN(c3ccc(C(=O)NS(=O)(=O)c4cc5c(c([N+](=O)[O-])c4)N[C@H](CN4CCN(C(=O)C6CC6)CC4)CO5)c(Oc4cnc5[nH]ccc5c4)c3)CC2)=C(c2ccc(Cl)cc2)C1` [Example 2-94, (R)-2-((1H-pyrrolo[2,3-b]pyridin-5-yl)oxy)-4-(4-((4′-chloro-5,5-dimethyl-3,4,5,6-tetra-hydro-[1,1′-biphenyl]-2-yl)methyl)piperazin-1-yl)-N-((3-((4-(cyclopropanecarbonyl)piperazin-1-yl)methyl)-5-nitro-3,4-dihydro-2H-benzo[b][1,4]oxazin-7-yl)sulfonyl)benza-mide], for which the IC50 came out at 1 nM in the assay with DOHH2 cells (Homo sapiens, DOHH-2, 120 h) and 20 nM in the assay on RS4;11 cells (Homo sapiens, RS4-11, 72 h).

For the molecule `CC1(C)CCC(CN2CCN(c3ccc(C(=O)NS(=O)(=O)c4cc5c(c([N+](=O)[O-])c4)N[C@H](C4CCC(C)(O)CC4)CO5)c(Oc4cnc5[nH]ccc5c4)c3)CC2)=C(c2ccc(Cl)cc2)C1` (single isomer, unassigned) [Example 2-3B], the half-inhibitory concentration (IC50) in the assay on DOHH2 cells (Homo sapiens, DOHH-2) is 33 nM; in the assay on RS4;11 cells (Homo sapiens), 8 nM.

For the molecule `CC1(C)CCC(CN2CCN(c3ccc(C(=O)NS(=O)(=O)c4cc5c(c([N+](=O)[O-])c4)N[C@@H](CC4CCC(O)CC4)CO5)c(Oc4cnc5[nH]ccc5c4)c3)CC2)=C(c2ccc(Cl)cc2)C1` (single isomer, unassigned) [Example 2-244B], the half-maximal inhibitory concentration (IC50) with DOHH2 cells was determined as 1 nM; in the assay on RS4;11 cells it was 3 nM.

As to `CC1(C)CCC(CN2CCN(c3ccc(C(=O)NS(=O)(=O)c4cc5c(c([N+](=O)[O-])c4)N[C@H](CNS(=O)(=O)C4CC4)CO5)c(Oc4cnc5[nH]ccc5c4)c3)CC2)=C(c2ccc(Cl)cc2)C1` [Example 2-138, (R)-2-((1H-pyrrolo[2,3-b]pyridin-5-yl)oxy)-4-(4-((4′-chloro-5,5-dimethyl-3,4,5,6-tetra-hydro-[1,1′-biphenyl]-2-yl)methyl)piperazin-1-yl)-N-((3-(cyclopropanesulfonamidometh-yl)-5-nitro-3,4-dihydro-2H-benzo[b][1,4]oxazin-7-yl)sulfonyl)benzamide], the IC50 amounted to 166 nM in the assay on DOHH2 cells (Homo sapiens, DOHH-2, 120 h) and 72 nM in the assay with RS4;11 cells (Homo sapiens, RS4-11, 72 h).

`CC1(C)CCC(CN2CCN(c3ccc(C(=O)NS(=O)(=O)c4cc5c(c([N+](=O)[O-])c4)N[C@H](CN4C[C@@H]6C[C@H]4CO6)CO5)c(Oc4cnc5[nH]ccc5c4)c3)CC2)=C(c2ccc(Cl)cc2)C1` [Example 2-82, 2-((1H-pyrrolo[2,3-b]pyridin-5-yl)oxy)-N-(((R)-3-(((1S,4S)-2-oxa-5-azabicyclo[2.2.1]heptan-5-yl)methyl)-5-nitro-3,4-dihydro-2H-benzo[b][1,4]oxazin-7-yl)sulfonyl)-4-(4-((4′-chloro-5,5-dimethyl-3,4,5,6-tetrahydro-[1,1′-biphenyl]-2-yl)methyl)piperazin-1-yl) benzamide]: the 50% inhibitory concentration (IC50) in the assay with DOHH2 cells (Homo sapiens, DOHH-2, 120 h) came to 9 nM; with RS4;11 cells (Homo sapiens, RS4-11, 72 h), 1 nM.

With `CC1(C)CCC(CN2CCN(c3ccc(C(=O)NS(=O)(=O)c4cc5c(c([N+](=O)[O-])c4)N[C@@H](CCN4CCOCC4)CS5)c(Oc4cnc5[nH]ccc5c4)c3)CC2)=C(c2ccc(Cl)cc2)C1` [Example 3-20, (S)-2-((1H-pyrrolo[2,3-b]pyridin-5-yl)oxy)-4-(4-((4′-chloro-5,5-dimethyl-3,4,5,6-tetra-hydro-[1,1′-biphenyl]-2-yl)methyl)piperazin-1-yl)-N-((3-(2-morpholinoethyl)-5-nitro-3,4-dihydro-2H-benzo[b][1,4]thiazin-7-yl)sulfonyl)benzamide], the half-inhibitory concentration (IC50) in the assay on DOHH2 cells (Homo sapiens, DOHH-2, 120 h) came to 9 nM; in the assay on RS4;11 cells (Homo sapiens, RS4-11, 72 h) it was 2 nM.

With `C[C@H]1CN(C[C@H]2COc3cc(S(=O)(=O)NC(=O)c4ccc(N5CCN(CC6=C(c7ccc(Cl)cc7)CC(C)(C)CC6)CC5)cc4Oc4cnc5[nH]ccc5c4)cc([N+](=O)[O-])c3N2)CCO1` [Example 2-31, 2-((1H-pyrrolo[2,3-b]pyridin-5-yl)oxy)-4-(4-((4′-chloro-5,5-dimethyl-3,4,5,6-tetrahydro-[1,1′-biphenyl]-2-yl)methyl)piperazin-1-yl)-N-(((S)-3-(((S)-2-methylmorpholino)meth-yl)-5-nitro-3,4-dihydro-2H-benzo[b][1,4]oxazin-7-yl)sulfonyl)benzamide], the IC50 in the assay with DOHH2 cells (Homo sapiens, DOHH-2, 120 h) was 18 nM; with RS4;11 cells (Homo sapiens, RS4-11, 72 h), 7 nM.

As to `CN1CCN(C(=O)[C@H]2COc3cc(S(=O)(=O)NC(=O)c4ccc(N5CCN(CC6=C(c7ccc(Cl)cc7)CC(C)(C)CC6)CC5)cc4Oc4cnc5[nH]ccc5c4)cc([N+](=O)[O-])c3N2)CC1` [Example 2-104, (R)-2-((1H-pyrrolo[2,3-b]pyridin-5-yl)oxy)-4-(4-((4′-chloro-5,5-dimethyl-3,4,5,6-tetra-hydro[1,1′-biphenyl]-2-yl)methyl)piperazin-1-yl)-N-((3-(4-methylpiperazine-1-carbo-nyl)-5-nitro-3,4-dihydro-2H-benzo[b][1,4]oxazin-7-yl)sulfonyl)benzamide], the IC50 in the assay with DOHH2 cells (Homo sapiens, DOHH-2, 120 h) is 173 nM; with RS4;11 cells (Homo sapiens, RS4-11, 72 h), 7 nM.

For the molecule `CC1(C)CCC(CN2CCN(c3ccc(C(=O)NS(=O)(=O)c4cc5c(c([N+](=O)[O-])c4)N[C@H](CC4CCNCC4)CO5)c(Oc4cnc5[nH]ccc5c4)c3)CC2)=C(c2ccc(Cl)cc2)C1` [Example 2-214, (R)-2-((1H-pyrrolo[2,3-b]pyridin-5-yl)oxy)-4-(4-((4′-chloro-5,5-dimethyl-3,4,5,6-tetra-hydro-[1,1′-biphenyl]-2-yl)methyl)piperazin-1-yl)-N-((5-nitro-3-(piperidin-4-ylmethyl)-3,4-dihydro-2H-benzo[b][1,4]oxazin-7-yl)sulfonyl)benzamide], the IC50 came out at 465 nM in the assay on DOHH2 cells (Homo sapiens, DOHH-2, 120 h) and 16 nM in the assay on RS4;11 cells (Homo sapiens, RS4-11, 72 h).

On to `CC1(C)CCC(CN2CCN(c3ccc(C(=O)NS(=O)(=O)c4cc5c(c([N+](=O)[O-])c4)N[C@H](CCN4CC(O)C4)CO5)c(Oc4cnc5[nH]ccc5c4)c3)CC2)=C(c2ccc(Cl)cc2)C1` [Example 2-34, (R)-2-((1H-pyrrolo[2,3-b]pyridin-5-yl)oxy)-4-(4-((4′-chloro-5,5-dimethyl-3,4,5,6-tetra-hydro-[1,1′-biphenyl]-2-yl)methyl)piperazin-1-yl)-N-((3-(2-(3-hydroxyazetidin-1-yl)eth-yl)-5-nitro-3,4-dihydro-2H-benzo[b][1,4]oxazin-7-yl)sulfonyl)benzamide], for which the IC50 amounted to 41 nM in the assay with DOHH2 cells (Homo sapiens, DOHH-2, 120 h) and 14 nM with RS4;11 cells (Homo sapiens, RS4-11, 72 h).

`CC1(C)CCC(CN2CCN(c3ccc(C(=O)NS(=O)(=O)c4cc5c(c([N+](=O)[O-])c4)N[C@@H](Cc4ccc(S(C)(=O)=O)cn4)CO5)c(Oc4cnc5[nH]ccc5c4)c3)CC2)=C(c2ccc(Cl)cc2)C1` [Example 2-192, (S)-2-((1H-pyrrolo[2,3-b]pyridin-5-yl)oxy)-4-(4-((4′-chloro-5,5-dimethyl-3,4,5,6-tetra-hydro-[1,1′-biphenyl]-2-yl)methyl)piperazin-1-yl)-N-((3-((5-(methylsulfonyl)pyridin-2-yl)methyl)-5-nitro-3,4-dihydro-2H-benzo [b][1,4]oxazin-7-yl)sulfonyl)benzamide]: the half-maximal inhibitory concentration (IC50) in the assay with DOHH2 cells (Homo sapiens, DOHH-2, 120 h) stood at 143 nM; with RS4;11 cells (Homo sapiens, RS4-11, 72 h), 5 nM.

For the molecule `COCC[C@H]1CSc2cc(S(=O)(=O)NC(=O)c3ccc(N4CCN(CC5=C(c6ccc(Cl)cc6)CC(C)(C)CC5)CC4)cc3Oc3cnc4[nH]ccc4c3)cc([N+](=O)[O-])c2N1` [Example 3-16, (S)-2-((1H-pyrrolo[2,3-b]pyridin-5-yl)oxy)-4-(4-((4′-chloro-5,5-dimethyl-3,4,5,6-tetra-hydro-[1,1′-biphenyl]-2-yl)methyl)piperazin-1-yl)-N-((3-(2-methoxyethyl)-5-nitro-3,4-dihydro-2H-benzo[b][1,4]thiazin-7-yl)sulfonyl)benzamide], the IC50 in the assay with DOHH2 cells (Homo sapiens, DOHH-2, 120 h) worked out at 132 nM; in the assay on RS4;11 cells (Homo sapiens, RS4-11, 72 h), 33 nM.

Consider `CC1(C)CCC(CN2CCN(c3ccc(C(=O)NS(=O)(=O)c4cc5c(c([N+](=O)[O-])c4)N[C@H](CN=S4(=O)CCOCC4)CO5)c(Oc4cnc5[nH]ccc5c4)c3)CC2)=C(c2ccc(Cl)cc2)C1` [Example 2-72, (R)-2-((1H-pyrrolo[2,3-b]pyridin-5-yl)oxy)-4-(4-((4′-chloro-5,5-dimethyl-3,4,5,6-tetra-hydro-[1,1′-biphenyl]-2-yl)methyl)piperazin-1-yl)-N-((5-nitro-3-(((4-oxido-1,4λ^6-oxa-thian-4-ylidene)amino)methyl)-3,4-dihydro-2H-benzo[b][1,4]oxazin-7-yl)sulfonyl)ben-zamide], for which the IC50 in the assay on DOHH2 cells (Homo sapiens, DOHH-2, 120 h) was 24 nM; in the assay with RS4;11 cells (Homo sapiens, RS4-11, 72 h), 6 nM.

In the case of `CC1(C)CCC(CN2CCN(c3ccc(C(=O)NS(=O)(=O)c4cc5c(c([N+](=O)[O-])c4)N[C@H](Cc4ccccc4)CO5)c(Oc4cnc5[nH]ccc5c4)c3)CC2)=C(c2ccc(Cl)cc2)C1` [Example 2-156, (R)-2-((1H-pyrrolo[2,3-b]pyridin-5-yl)oxy)-N-((3-benzyl-5-nitro-3,4-dihdyro-2H-benzo[b][1,4]oxazin-7-yl)sulfonyl)-4-(4-((4′-chloro-5,5-dimethyl-3,4,5,6-tetrahydro-[1,1′-biphenyl]-2-yl)methyl)piperazin-1-yl)benza-mide], the half-maximal inhibitory concentration (IC50) in the assay on DOHH2 cells (Homo sapiens, DOHH-2, 120 h) was 6 nM; in the assay with RS4;11 cells (Homo sapiens, RS4-11, 72 h), 19 nM.
